# “And” between values parts separate entries of the source, which are not always exact repeats. Equal entries are not always repeated.
# System: TC71 Ewing sarcoma viability, CellTiter-Glo ATP, 72 h
# Assay: TC71 Ewing sarcoma cell killing, confirmation, luminescence, cherry-picked samples, retest (AID 720570)
row,SMILES,AC35
1,C[C@@H]1O[C@@H](O[C@@H]2C=C3CC[C@@H]4C(CC[C@]5(C)[C@@H](c6ccc(=O)oc6)CC[C@]45O)[C@@]3(C)CC2)[C@H](O)[C@H](O)[C@H]1O (stereo not given in full),0.0374 µM
2,C[C@@H]1CCCCO[C@H](CN(C)Cc2ccc(C(=O)Nc3ccccc3N)cc2)[C@@H](C)CN([C@H](C)CO)C(=O)c2cc(NS(=O)(=O)c3ccc(F)cc3)ccc2O1,12.9 µM
3,CCCCc1c(Cc2ccccc2)ncn1CCc1ccccc1OC,14.4 µM
4,C[C@@H]1O[C@@H](O[C@@H]2C=C3CCC4C(CC[C@]5(C)[C@@H](c6ccc(=O)oc6)CC[C@]45O)[C@@]3(C)CC2)[C@H](O)[C@H](O)[C@H]1O (stereo not given in full),0.0271 µM
5,CCCCCCCCCCCCCCCCn1cc[n+](C)c1,10.2 µM
6,CN=c1scc(-c2cccs2)n1/N=C/c1ccccc1O,21.7 µM
7,CC(=O)OC1CC2(O)C3CCC4CC(O)CCC4(C)C3CCC2(C)C1C1=CC(=O)OC1 (stereo not given),0.797 µM
8,O=c1c(Cl)cc(Cl)nn1-c1ccccc1,13 µM
9,COC(=O)c1ccccc1-c1c2ccc(=N)cc-2oc2cc(N)ccc12,8.14 µM
10,C[C@@H]1CN([C@@H](C)CO)C(=O)c2cc(NC(=O)Nc3ccccc3)ccc2O[C@@H]1CN(C)Cc1ccc(C(=O)Nc2ccccc2N)cc1,6.58 µM
11,COc1ccc(NC(=S)N=Nc2c(O)[nH]c3ccccc23)cc1,20.1 µM
12,COc1ccc(OC)c(Cc2cnc3nc(N)nc(N)c3c2C)c1,0.0778 µM
13,CCN1C/C(=C/c2ccc(OC)c(O)c2)C(=O)/C(=C/c2ccc(OC)c(O)c2)C1,22.9 µM
14,C[C@]12CC[C@H](O)C[C@H]1CC[C@@H]1[C@@H]2C[C@@H](O)[C@]2(C)[C@@H](C3=CC(=O)OC3)CC[C@]12O,3.35 µM
15,CCOc1ccc(OCc2ccc(C(=O)NN=Cc3ccc[nH]3)cc2)cc1,0.504 µM
16,CN(C[C@H]1N[C@@H](CO)[C@@H]1c1ccc(C2=CCCC2)cc1)C(=O)c1ccc(F)cc1,3.92 µM
17,O=C(Nc1ccc2c(c1)OCO2)N1C[C@@H]2N[C@H](C1)C2c1ccc(C=Cc2ccccc2)cc1 (stereo not given in full),12.8 µM
18,COc1cccc(OC)c1C(=O)Nc1cc(C)nn1-c1nc2ccccc2[nH]1,18.2 µM
19,Oc1cccc(-c2nnc(-c3cccc(O)c3)nn2)c1,21.3 µM
20,N#C[C@H]1[C@H](c2ccc(-c3ccccc3F)cc2)[C@@H](CO)N1C(=O)Cc1ccccc1,6.75 µM
21,CN=c1scc(-c2ccccc2F)n1/N=C/c1ccc(O)c(O)c1O,16.1 µM
22,C[C@]12CC[C@H](O)C[C@H]1CC[C@@H]1[C@@H]2CC[C@]2(C)[C@@H](C3=CC(=O)OC3)CC[C@]12O,2.11 µM
23,S=c1[nH]nc(-c2cc(-c3ccccc3)n[nH]2)n1/N=C/C(Br)=C/c1ccccc1,13.2 µM

row,SMILES,AC35
1,COc1ccc(S(=O)(=O)Nc2cccc3c2O[C@H](CN(C)Cc2ccc(C(=O)Nc4ccccc4N)cc2)[C@H](C)CN([C@@H](C)CO)C3=O)cc1,5.62 µM
2,C(=Cc1c[nH]c2ccccc12)c1ccc2ccccc2n1,3.86 µM
3,Cc1[nH]c(=S)sc1Cc1ccc(Cl)c(Cl)c1,0.898 µM
4,N#CC(C#N)=C1C=CC=CN1/C(=C\c1ccco1)C(=O)c1ccc(Cl)cc1,8.19 µM
5,Cc1ccc(S(=O)(=O)Nc2ccc3c(c2)C(=O)N([C@@H](C)CO)C[C@@H](C)[C@H](CN(C)Cc2ccc(C(F)(F)F)cc2)OCCCC[C@H](C)O3)cc1,11.7 µM
6,Nc1nc(N)c2cc(Sc3ccc4ccccc4c3)ccc2n1,1.83 µM
7,Nc1ccn([C@@H]2O[C@H](CO)[C@@H](O)C2O)c(=O)n1 (stereo not given in full),1.22 µM
8,COc1ccc(-c2cn(-c3ccc(OC)cc3)c3[n+]2-c2ccccc2CC3)cc1,14.4 µM
9,C[C@@H]1CN([C@@H](C)CO)C(=O)c2cc(N(C)C)ccc2O[C@H]1CN(C)Cc1ccc(C(=O)Nc2ccccc2N)cc1,22 µM
10,CC1(C)Oc2cc3oc(-c4cc(O)cc(O)c4)cc3cc2CC1O (stereo not given),12.5 µM
11,O=C1NC(=O)N(Cc2ccc(F)cc2)C(=O)/C1=C\C=C\c1ccco1,9.09 µM
12,O=C(Nc1ccc(Br)cc1)c1ccc(F)c(S(=O)(=O)N2CCN(c3ccccn3)CC2)c1,18.2 µM
13,COc1cc2c(cc1NC(=O)CN(C)Cc1ccc(OC)c(OC)c1)oc1ccccc12,14.5 µM
14,CN(Cc1cnc2nc(N)nc(N)c2n1)c1ccc(C(=O)N[C@@H](CCC(=O)O)C(=O)O)cc1,0.0194 µM and 0.0201 µM
15,C[C@@H]1O[C@@H](O[C@H]2C[C@@H](O)[C@]3(CO)[C@@H]4C(CC[C@]3(O)C2)[C@@]2(O)CC[C@H](C3COC(=O)C3)[C@@]2(C)C[C@H]4O)[C@H](O)[C@H](O)[C@H]1O (stereo not given in full),6.91 µM
16,CCc1ccc2oc(C(=O)N3CCN(c4ccccc4OC)CC3)cc(=O)c2c1,12.6 µM
17,CCCCCCCN(c1ccccc1)[C@@H]1C[C@H]2CCCC(=O)N3CC[C@@H](C1)[C@@H]23,1.95 µM
18,Cc1cc(C(=O)Nc2ccc3c(c2)C(=O)N(C)[C@@H]2CC[C@H](CC(=O)N[C@H](C)c4ccccc4)O[C@H]2CO3)no1,14 µM
19,C[C@@H]1CN([C@@H](C)CO)C(=O)c2cccc(NC(=O)Nc3cccc4ccccc34)c2O[C@@H]1CN(C)Cc1ccc(C(=O)Nc2ccccc2N)cc1,10.8 µM
20,CCc1cccc2c(C(=O)CN3C(=O)NC4(CCCCC4)C3=O)c[nH]c12,4.29 µM
21,Cc1c(Cl)cccc1NC(=O)CCC(=O)N/N=C/c1ccc[nH]1,4.44 µM
22,COc1cc(-c2noc(C)c2C#Cc2nccn2C)cc(OC)c1OC,13.1 µM

# — PubChem BioAssay AID720570 (Broad Institute, 2013)
